Experiments:
[1] = Blood ionized calcium level in mice after percutaneous administration (Test Examples 1 and 3); assay type: in vivo; details: Balb/c mice, percutaneous single application, dose 1000 μg/kg, blood taken two days after administration
Experimental: Eight week old male Balb/c mice were percutaneously administered with active vitamin D3 (1α,25 (OH)2D3, 125 μg/ml in ethanol) or Compounds 1 to 5 (vitamin D derivatives prepared in the above Examples, 500 μg/ml in ethanol) or ethanol alone (as a control). These samples were applied once to the dorsal skin (about 1.5×2.0 cm^2) of the mice in a volume of 2 ml/kg. Each of the mice was then fitted with a necklace harness in order to avoid oral ingestion. On the next day, the administered sites were cleaned and the necklace harnesses were removed. Two days after administration, blood was taken from each mouse and assayed for ionized calcium level by the ion selective electrode method. The assay was performed in groups of 3 mice. […] Ionized calcium levels in the table are expressed as mean values.
The same procedures as shown in Test Example 1 were repeated to assay blood ionized calcium levels in mice, except that Compounds 6 to 12 were used as vitamin D derivatives. […] Ionized calcium levels in the table are expressed as mean values.

[2] = test system: Keratinocytes from human neonatal foreskin; assay: Growth inhibition against human keratinocytes, [3H]thymidine uptake (Test Example 2); assay type: cell-based; details: relative inhibition = IC50 of active vitamin D3 / IC50 of each compound
Experimental: Keratinocytes from human neonatal foreskin (Clonetics) were seeded in 96-well plates (COSTAR 3595) at a cell density of 2×10^3/well. The wells were then supplemented with the given concentrations of active vitamin D3 (1α,25 (OH)2D3) or Compounds 1 to 5, followed by incubation in KGM-2 medium at a cell density of 2×10^3 cells/200 μl/well for 3 days at 37° C. in 5% CO2 and 95% air. [^3H]Thymidine was added to each well (7.4 kBq/well) and the plates were further incubated for 1 day. Each well was washed once with calcium- and magnesium-free phosphate buffer (Dulbecco's PBS(−), Nissui, code 05913, pH 7.3-7.65) and then treated with 0.25% trypsin to strip the cells. The [^3H]thymidine uptake of the cells was determined by a liquid scintillation counter (1450 MicroBeta, Wallac). […] Growth inhibition against human keratinocytes in the table was expressed as a relative value of each compound compared to active vitamin D3: Relative inhibition=(IC50 (mol/l) of active vitamin D3)/(IC50 (mol/l) of each compound).

[3] = test system: Keratinocytes from adult human skin; assay: Growth inhibition against keratinocytes, [3H]thymidine incorporation (Test Example 4); assay type: cell-based; details: relative inhibition = IC50 of active vitamin D3 / IC50 of test compound
Experimental: Keratinocytes from adult human skin (Clonetics) were seeded in 96-well plates (COSTAR 3595) at a cell density of 1×10^3/well. The wells were then supplemented with the given concentrations of active vitamin D3 (1α,25 (OH)2D3) or Compounds 6 to 12, followed by incubation in KGM-2 medium at a cell density of 1×10^3 cells/200 μl/well for 3 days at 37° C. in 5% CO2 and 95% air. [^3H]Thymidine was added to each well (7.4 kBq/well) and the plates were further incubated for 1 day. After removal of the medium, each well was treated with 0.05% trypsin/0.53 mM EDTA to strip the cells. The amount of [^3H]thymidine incorporated into the cells was determined with a liquid scintillation counter (1450 MicroBeta, Wallac). […] Growth inhibition against keratinocytes in the table was expressed as a relative value of each compound compared to active vitamin D3: Relative inhibition=(IC50 (mol/l) of active vitamin D3)/(IC50 (mol/l) of test compound).

Molecule	Blood ionized calcium level ([1]; Test Example 1, mean of 3 mice) [mmol/L]	Growth inhibition against human keratinocytes (relative value) [2]	Blood ionized calcium level ([1]; Test Example 3, mean values) [mmol/L]	Growth inhibition against human keratinocytes (relative value) [3]
C=C1C(=CC=C2CCCC3(C)C(C(C)OCC(=O)OC(C)C)=CCC23)CC(O)CC1O [Compound 5, 1α,3β-dihydroxy-20(S)-(isopropoxycarbonylmethoxy)-9,10-secopregna-5,7,10(19),16-tetraene]	1.35	0.3		
1α,3β-dihydroxy-20(S)-(N-tert-butylaminocarbonylmethoxy)-9,10-secopregna-5,7,10(19),16-tetraene [Compound 4]	2.16	7.0		
C=C1/C(=C\C=C2/CCC[C@]3(C)C([C@H](C)OCC(=O)NCC(F)(F)C(F)(F)F)=CC[C@@H]23)C[C@@H](O)C[C@@H]1O [Compound 12, {(1α,3β-dihydroxy-9,10-secopregna-5,7,10(19),16-tetraen-20(S)-yl)oxy}-N-(2,2,3,3,3-pentafluoropropyl)acetamide]			1.58	8.3
C=C1C(=CC=C2CCCC3(C)C(C(C)OCC(=O)OC(C)(C)CCC)=CCC23)CC(O)CC1O [Compound 8, 1α,3β-dihydroxy-20(S)-(1,1-dimethylbutoxycarbonylmethoxy)-9,10-secopregna-5,7,10(19),16-tetraene]			1.39	2.5
1α,3β-dihydroxy-20(S)-(1-isopropyl-2-methylpropoxycarbonylmethoxy)-9,10-secopregna-5,7,10(19),16-tetraene [Compound 7]			1.28	0.4
1α,3β-dihydroxy-20(S)-(1,1-dimethylhexyloxycarbonylmethoxy)-9,10-secopregna-5,7,10(19),16-tetraene [Compound 10]			1.43	1.6
1α,25(OH)2D3		1.0		1.0
C=C1/C(=C\C=C2/CCC[C@]3(C)C([C@H](C)OCC(=O)OC(C)(CC)CC)=CC[C@@H]23)C[C@@H](O)C[C@@H]1O [Compound 6, 1α,3β-dihydroxy-20(S)-(1-ethyl-1-methylpropoxycarbonylmethoxy)-9,10-secopregna-5,7,10(19),16-tetraene]			1.57	12.0
C=C1/C(=C\C=C2/CCC[C@]3(C)C([C@H](C)OCCC(=O)OC(C)(C)C)=CC[C@@H]23)C[C@@H](O)C[C@@H]1O [Compound 3, 1α,3β-dihydroxy-20(S)-(tert-butoxycarbonylethoxy)-9,10-secopregna-5,7,10(19),16-tetraene]		0.5		
C=C1C(=CC=C2CCCC3(C)C2CCC3C(C)OCC(=O)OC(C)(CC)CC)CC(O)CC1O [Compound 9, 1α,3β-dihydroxy-20(S)-(1-ethyl-1-methylpropoxycarbonylmethoxy)-9,10-secopregna-5,7,10(19)-triene]			1.55	0.7
C=C1C(=CC=C2CCCC3(C)C(C(C)OCCC(=O)OC(C)(CC)CC)=CCC23)CC(O)CC1O [Compound 11, 1α,3β-dihydroxy-20(S)-{2-(1-ethyl-1-methylpropoxycarbonyl)ethoxy}-9,10-secopregna-5,7,10(19),16-tetraene]			1.42	0.4
1α,3β-dihydroxy-20(S)-(N-tert-butyl-N-methylaminocarbonylmethoxy)-9,10-secopregna-5,7,10(19),16-tetraene [Compound 2]	2.27	5.9		
20(S)-(tert-butoxycarbonylmethoxy)-1α,3β-dihydroxy-9,10-secopregna-5,7,10(19),16-tetraene [Compound 1]	1.65	2.0		

— US7985744B2, “Vitamin D derivatives” (Chugai Seiyaku Kabushiki Kaisha, priority 2000, dated 2011)
